The source of these data is patent US12533345B2 (AARHUS UNIVERSITET, priority 2015, dated 2026).

The subject of test [1] is CIC-1 inhibited rat soleus muscles. Kind of test: Myotonia (tail AUC of force response) in 9AC-treated isolated rat soleus muscle. The conditions noted are these: for EC50: Rattus norvegicus; for Ability to abolish myotonia / Slope of fit: rat soleus; for Ability to abolish myotonia: 9AC, increasing concentrations; for Reduction of myotonia within clinically observed concentration ranges: isolated muscle, species not stated at this place (study on rat and human); for Slope of fit: 3-parameter sigmoidal fit of AUC vs concentration.

Test [2] deals with non-myotonic rat soleus muscles. Kind of test: Contractile force in non-myotonic isolated rat soleus muscles. The class given is cell-based. To be noted: three hrs incubation, 5 and 60 Hz stimulation, similar to time-matched controls. The method, then:
To first test for effects of the three drugs (RUF, LCM and LTG) on force in non-myotonic rat soleus muscles, muscles were exposed to 2 s stimulations at both 5 Hz and 60 Hz every 10 mins during three hrs of drug incubation. The drug concentrations were the highest free concentrations that are tolerated clinically: For both 5 and 60 Hz stimulation, incubation with 5 μM LCM reduced force by ˜6-8% in two muscles. With 25 μM LTG force was reduced by ˜6% in three muscles, and with 100 μM RUF force was reduced by 4% in three muscles. In all cases, these reductions in force during the three hours were similar to reductions observed in time-matched control muscles.

The subject of test [3] is isolated human abdominal rectus muscle. Briefly: Myotonia (tail AUC) in 9AC-treated bundles of isolated human abdominal rectus muscle. The class given is cell-based. The conditions noted are these: for EC50: Homo sapiens, read-out: EC50 (concentration required to reduce AUC to 50% of maximal value); for Slope of fit: human muscle bundles, 3-parameter sigmoidal fit, mean ± SEM; for Ability to abolish myotonia: isolated human muscles, 9AC, increasing concentrations. The method, then: As in rat muscles myotonia was induced with 9-AC and quantified from the AUC as determined from the cessation of stimulation to force returned to baseline. […] C and D show similar data for RUF (n=4) and LTG (n=6), respectively.
The use of human muscles was approved by the Danish Ethics Committee, Region Midtjylland, Comité I (reference number Jan. 10, 1972-20-13) and was performed in accordance with the Helsinki Declaration. Informed consent was obtained from all subjects before inclusion. Muscles were obtained from 4 male subjects admitted in relation to planned aortic aneurysm surgery at Skejby hospital. […] After isolation the tissue was transported to the laboratory at the University (<30 min) in a HEPES based solution (pH 7.4) at ˜5° C. Upon arrival to the laboratory, the tissue was incubated in often-replaced fresh Krebs-Ringer bicarbonate solution equilibrated with 5% CO2 in oxygen at 30° C. for 10 to 20 min, before further dissection into smaller bundles of approx. 4 cm length weighing 515±61 mg. For contraction experiments, bundles were tied at both ends with polyester string, to enable mounting of the preparations in the setups for measurement of contractile force.
The experiments in FIG. 1 were repeated for small muscle bundles of human abdominal muscle. 9AC was used to induce myotonia and, subsequently, LCM, RUF or LTG were added at increasing concentrations. In all cases, myotonia was reduced with increased concentration of drug. […] Similar traces were obtained with LCM-and LTG-treated bundles of human muscle. FIG. 2B-D show data and sigmoidal fits from individual bundles with additions of LCM (n=5), RUF (n=5) and LTG (n=6), respectively.

Test [4] relates to rat EDL muscles. Kind of test: LDH release from stimulated 9AC-treated (myotonic) rat EDL muscles. To be noted: stimulation for 60 min, LDH followed 3 hrs after contraction. It counts as cell-based. The method, then:
In all cases a sample was taken before stimulation (Pre), the muscles were then stimulated to contraction for 2 s at 30 Hz by 0.2 ms pulses every 3 minutes for 60 min (20 stimulations) or left resting. Open symbols are from muscles incubated with 9AC±LTG or RUF. Solid triangles are from muscles incubated with 9AC without stimulation. Immediately after cessation of stimulation, a new sample was taken from solution incubating the muscles. For the next 180 minutes a sample was taken from the incubating solution every 30 minutes, as designated by the time after stimulation. The period from cessation of stimulation to 180 min after stimulation is termed recovery.
EDL muscles from rats were isolated and placed in small chambers with oxygenated as previously described in detail (Gissel H1, Clausen T. Excitation-induced Ca(2+) influx in rat soleus and EDL muscle: mechanisms and effects on cellular integrity. Am J Physiol Regul Integr Comp Physiol. 2000 279(3): R917-24).
To explore for an effect of myotonia on muscle fibre integrity and the effect of the drugs hereupon, the release of the intracellular protein from the muscle, lactate dehydrogenase (LDH), to the incubation solution was determined in contracting EDL muscles.
(Release of lactate dehydrogenase indicates damage to the cell membrane.)

The mark [5] stands for this setting: 10 min, read-out: EC50 (reduction of AUC), rat soleus, 100 μM 9AC, 15 Hz 2 s every 10 min, two muscles per compound.
[6] abbreviates: read-out: EC50 (concentration required to reduce AUC to 50% of maximal value), rat soleus, 100 μM 9AC, 15 Hz 2 s stimulation, 3-parameter sigmoidal fit, mean ± SEM, Table 1 prints no unit, b139 gives concentrations in μM.

Like-named read-outs stand apart in the source and are kept apart here.

As to `Cc1c(C(N)=O)nnn1Cc1ccccc1` [Compound 2, 1-benzyl-5-methyl-1H-1,2,3-triazole-4-carboxamide], the EC50 in test [1] (setting [5]) was 19.1 µM. Besides, the “Ability to abolish myotonia” value in test [1] was “completely abolish myotonia”.
In test [2] (100 μM RUF), `NC(=O)c1cn(Cc2c(F)cccc2F)nn1` [Rufinamide, 1-(2,6-Difluorobenzyl)-1H-1,2,3-triazole-4-carboxamide] showed a Reduction of force of 4%. Besides, the “Reduction of AUC (myotonia)” value is “more than 50%” in test [1] (20 μM RUF, 9AC treated muscle (FIG. 1 B3)) and roughly 98% in test [1] (100 μM RUF (FIG. 1 B4)). The EC50 in test [1] (setting [6]) worked out at 18.1 ± 1.84 µM; in test [1] (read-out: RUF concentration for AUC to be reduced by 50%, in presence of 0.5 μM LTG (n=6)) it was 7 µM; in test [1] (read-out: RUF concentration for AUC to be reduced by 50%, pre-incubation with 1 μM LTG (n=4)), 3.1 µM; in test [3], 22.5 ± 1.73 µM. Moreover, the “RUF concentration less than expected if RUF and LTG acted purely additively” value in test [1] (isobole plot, 0.5 μM LTG) worked out at 5 µM. In test [1] (isobole plot, 1 μM LTG), the “RUF concentration less than predicted by the assumption of additivity” value was 3 µM. Also, the “Reduction of myotonia within clinically observed concentration ranges” value in test [1] is 92±2%. The figures for the Slope of fit in test [1] (mean ± SEM) and in test [3] were −0.29 ± 0.02 and −0.33 ± 0.035, respectively. Further, the “Ability to abolish myotonia” value in test [1] and in test [3] was “completely abolish myotonia” throughout. Moreover, the “RUF concentration for half effect as % of concentration expected for additive action” value in test [1] (with 0.5 μM or 1 μM LTG, both cases) was “around 50%”. For the same molecule, in test [3] (80 μM RUF, single human muscle bundle, 100 μM 9AC (FIG. 2A)), the Effect on myotonia entry is listed as “almost full abolishment of myotonia”. For the same molecule, the “Effect on myotonia-induced LDH release (muscle damage)” value in test [4] is on record as “completely blocked”.
For `Nc1nnc(-c2cccc(Cl)c2Cl)c(N)n1` [Lamotrigine, 6-(2,3-dichlorophenyl)-1,2,4-triazine-3,5-diamine], the Reduction of force in test [2] (25 μM LTG) was roughly 6%. Moreover, the “AUC as % of the full myotonic state” value in test [1] (0.5 μM LTG (FIG. 3 A3)) was found to be 90%. Also, the “Reduction of AUC (myotonia)” value in test [1] (2 μM LTG (FIG. 1 C3)) was roughly 46%; in test [1] (16 μM LTG (FIG. 1 C4)), roughly 98%. Also, the EC50 is 1.52 ± 0.13 µM in test [1] (setting [6]) and 5.54 ± 0.88 µM in test [3]. Besides, the “Reduction of myotonia within clinically observed concentration ranges” value in test [1] turned out to be 92±2%. Moreover, the Slope of fit in test [1] (mean ± SEM) is listed as −0.39 ± 0.042; in test [3], −0.30 ± 0.068. Also, the “Ability to abolish myotonia” value in test [1] and in test [3] was “completely abolish myotonia” in each case. The “Effect on myotonia-induced LDH release (muscle damage)” value in test [4] was “Very similar effects”.
`NC(=O)c1nnn(Cc2ccccc2)c1N` [Compound 1, 5-amino-1-benzyl-1H-1,2,3-triazole-4-carboxamide]: the EC50 in test [1] (setting [5]) is 24.7 µM. Further, the “Ability to abolish myotonia” value in test [1] was “completely abolish myotonia”.
